US7872045B2, “Combination therapy for glaucoma treatment” (Allergan, Inc., priority 2001, dated 2011)

What was measured:
[1] = target: T1, human EP4 receptor (hEP4) (Homo sapiens, UniProt P35408); experiment: Radioligand binding competition vs [3H]PGE2, human recombinant EP4 receptor; details: [3H]PGE2 competition, plasma membranes of HEK-293 stable transfectants, 60 min 25° C.
T1 construct: expressed in transfected cells; plasma membrane fraction
Description: Human Recombinant EP1, EP2, EP4, and FP Receptors: Stable Transfectants
(§1) HEK-293 cells stably expressing the human or feline FP receptor, or EP1, EP2, EP3, or EP4 receptors were washed with TME buffer, scraped from the bottom of the flasks, and homogenized for 30 sec using a Brinkman PT 10/35 polytron. TME buffer was added to achieve a final 40 ml volume in the centrifuge tubes (the composition of TME is […]; ION HCl is added to achieve a pH of 7.4).
The cell homogenate was centrifuged at 19000 r.p.m. for 20 min at 4° C. using a Beckman Ti-60 rotor. The resultant pellet was resuspended in TME buffer to give a final 1 mg/ml protein concentration, as determined by Biorad assay. Radioligand binding competition assays vs. [^3H-]17 -phenyl PGF2α (5 nM) were performed in a 100 μl volume for 60 min. Binding reactions were started by adding plasma membrane fraction. The reaction was terminated by the addition of 4 ml ice-cold TRIS-HCl buffer and rapid filtration through glass fiber GF/B filters using a Brandel cell harvester. The filters were washed 3 times with ice-cold buffer and oven dried for one hour. Non-specific binding was determined with 10 uM unlabeled 17 -phenyl PGF2α.
(§2) [^3H-] PGE2 (5 nM; specific activity 180 Ci mmol) was used as the radioligand for EP receptors. Binding studies employing EP1, EP2, EP3, EP4 were performed in duplicate in at least three separate experiments. A 200 μl assay volume was used. Incubations were for 60 min at 25° C. and were terminated by the addition of 4 ml of ice-cold 50 mM TRIS-HCl, followed by rapid filtration through Whatman GF/B filters and three additional 4 ml washes in a cell harvester (Brandel). Non-specific binding determined with 10^−5M of unlabeled PGE2,.
Plasmids encoding the human EP1, EP2, EP4, and FP receptors were prepared by cloning the respective coding sequences into the eukaryotic expression vector pCEP4 (Invitrogen). The pCEP4 vector contains an Epstein Barr virus (EBV) origin of replication, which permits episomal replication in primate cell lines expressing EBV nuclear antigen (EBNA-1). Similarly, competitive experiments were caried out using [3H]17-phenylPGF2α at 5 nM in the presence of test ligands at various concentrations. Also non-specific binding was, determined in the presence of excess unlabeled PGF2α (10^−5 M).
It also contains a hygromycin resistance gene that is used for eukaryotic selection. The cells employed for stable transfection were human embryonic kidney cells (HEK-293) that were transfected with and express the EBNA-1 protein. These HEK-293-EBNA cells (Invitrogen) were grown in medium containing Geneticin (G418) to maintain expression of the EBNA-1 protein. HEK-293 cells were grown in DMEM with 10% fetal bovine serum (FBS), 250 μg ml G418 (Life Technologies) and 200 μg ml^−1 gentamicin or penicillin/streptomycin.
For transfection, the cells were grown to 50-60% confluency on 10 cm plates. The plasmid pCEP4 incorporating cDNA inserts for the respective human prostanoid receptor (20 μg) was added to 500 μl of 250 mM CaCl2. HEPES buffered saline ×2 (2×HBS, 280 mM NaCl, 20 mM HEPES acid, 1.5 mM Na2 HPO4, pH 7.05-7.12) was then added dropwise to a total of […], with continuous vortexing at room temperature. After 30 min, 9 ml DMEM were added to the mixture. The DNA/DMEM/calcium phosphate mixture was then added to the cells, which had been previously rinsed with 10 ml PBS. The cells were then incubated for 5 hr at 37° C. in humidified 95% air/5% CO2. The calcium phosphate solution was then removed and the cells were treated with 10% glycerol in DMEM for 2 min. The glycerol solution was then replaced by DMEM with 10% FBS. The cells were incubated overnight and the medium was replaced by DMEM/10% FBS containing 250 μg ml^−1 G418 and penicillin/streptomycin. The following day hygromycin B was added to a final concentration of 200 μg ml^−1. […]

[2] = target: T2, human EP3 receptor (hEP3, D isoform) (Homo sapiens, UniProt P43115); experiment: Radioligand binding competition vs [3H]PGE2, human recombinant EP3 receptor; details: [3H]PGE2 competition, plasma membranes of transfected cells (COS-7 transient; HEK-293 also named), 60 min 25° C.
T2 construct: expressed in transfected cells; host or cells: COS-7 cells, transient transfection with pcDNA3 (lipofectin); plasma membrane fraction
T2 sequence (P43115 1-374 isoform P43115-4): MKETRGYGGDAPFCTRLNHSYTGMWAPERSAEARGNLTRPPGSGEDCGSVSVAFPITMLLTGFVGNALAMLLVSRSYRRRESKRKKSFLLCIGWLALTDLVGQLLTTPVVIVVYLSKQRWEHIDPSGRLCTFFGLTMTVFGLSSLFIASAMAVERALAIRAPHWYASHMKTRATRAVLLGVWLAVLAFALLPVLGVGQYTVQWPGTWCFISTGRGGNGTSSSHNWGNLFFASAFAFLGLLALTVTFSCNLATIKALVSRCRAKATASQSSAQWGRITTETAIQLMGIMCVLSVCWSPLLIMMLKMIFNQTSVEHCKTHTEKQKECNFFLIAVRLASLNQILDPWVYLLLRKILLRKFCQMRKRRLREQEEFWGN
Description: as §1, §2
Human Recombinant EP3 and TP Receptors: Transient Transfectants.
Plasmids encoding the human EP3 (D isoform) or TP receptor were prepared by cloning the respective coding sequences into a pcDNA3 vector (Invitrogen). COS-7 cells were transfected with pcDNA3 containing cDNA encoding the EP3 or TP receptor by employing the lipofectin method, according to the manufacturers instructions (Gibco). For radioligand binding studies, cells were harvested two days after transfection.
Radioligand binding studies on plasma membrane fractions prepared from cells were performed as follows. Cells washed with TME buffer were scraped from the bottom of the plates and homogenized for 30 sec using a Brinkman PT 10/35 polytron. TME buffer was added as necessary to achieve a 40 ml volume in the centrifuge tubes. TME is comprised of 50 mM TRIS base, 10 mM MgCl2, 1 mM EDTA; pH 7.4 is achieved by adding 1 N HCl. The cell homogenate was centrifuged at 19,000 rpm for 20-25 min at 4° C. using a Beckman Ti-60 or T ? -70 rotor. The pellet was then resuspended in TME buffer to provide a final protein concentration of 1 mg/ml, as determined by Bio-Rad assay. Radioligand binding assays were performed in a 100 μl or 200 μl volume.
The binding of [^3H] PGE2 (specific activity 165 Ci/mmol) was determined in duplicate and, in at least 3 separate experiments. Incubations were for 60 min at 25° C. and were terminated by the addition of 4 ml of ice-cold 50 mM TRIS-HCl followed by rapid filtration through Whatman GF/B filters and three additional 4 ml washes in a cell harvester (Brandel). Competition studies were performed using a final concentration of 2.5 or 5 nM [H] PGE2 and non-specific binding was determined with 10^−5 M unlabelled PGE2.

T1 sequence (P35408 whole entry): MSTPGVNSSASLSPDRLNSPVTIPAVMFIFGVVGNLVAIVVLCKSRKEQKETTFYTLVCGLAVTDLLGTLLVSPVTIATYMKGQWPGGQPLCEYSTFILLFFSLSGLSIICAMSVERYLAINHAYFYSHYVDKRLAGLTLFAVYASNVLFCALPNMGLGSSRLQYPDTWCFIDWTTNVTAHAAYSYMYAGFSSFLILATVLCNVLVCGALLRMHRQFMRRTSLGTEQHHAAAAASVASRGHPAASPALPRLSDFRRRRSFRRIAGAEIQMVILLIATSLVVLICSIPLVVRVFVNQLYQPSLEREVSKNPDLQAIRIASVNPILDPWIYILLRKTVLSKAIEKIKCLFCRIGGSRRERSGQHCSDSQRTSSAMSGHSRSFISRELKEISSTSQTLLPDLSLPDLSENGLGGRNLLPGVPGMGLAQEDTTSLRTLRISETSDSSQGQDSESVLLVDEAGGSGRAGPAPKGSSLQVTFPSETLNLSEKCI

For `COC(=O)CSCCCS[C@H]1C(=O)C[C@@H](O)[C@@H]1/C=C/C(O)Cc1ccc2ccccc2c1` (single isomer, unassigned) [Example 21H], the IC50 [1] was 100 nM and the IC50 [2] was > 10000 nM.

For `COC(=O)CSCCCS[C@H]1C(=O)C[C@@H](O)[C@@H]1/C=C/C(O)Cc1ccc2ccccc2c1` (single isomer, unassigned) [Example 21L], the IC50 [1] was 13 nM and the IC50 [2] was > 10000 nM.

With `O=C(O)CSCCCS[C@H]1C(=O)C[C@@H](O)[C@@H]1/C=C/C(O)Cc1ccc2ccccc2c1` (single isomer, unassigned) [Example 22H] the IC50 [1] was 32 nM and the IC50 [2] was > 10000 nM.

With `COC(=O)CSCCCS[C@H]1C(=O)C[C@@H](O)[C@@H]1/C=C/C(O)Cc1csc2ccccc12` (single isomer, unassigned) [Example 24H] the IC50 [1] was 200 nM.

In the case of `COC(=O)CSCCCS[C@H]1C(=O)C[C@@H](O)[C@@H]1/C=C/C(C)(O)CCc1ccc2ccccc2c1` (single isomer, unassigned) [Example 27H], the IC50 [1] is reported as 500 nM.

For `COC(=O)CSCCCS[C@H]1C(=O)C[C@@H](O)[C@@H]1/C=C/C(C)(O)CCc1ccc2ccccc2c1` (single isomer, unassigned) [Example 27L], the IC50 [1] was 3400 nM.

Work on `COC(=O)CSCCCS[C@H]1C(=O)C[C@@H](O)[C@@H]1/C=C/C(O)CCc1ccc2ccccc2c1` (stereo partly drawn) [Example 9H, {3-[(1R,2S,3R)-3-Hydroxy-2-((S)-(E)-3-(hydroxy)-5-(naphthyl)pent-1-enyl)-5-oxocyclopentylsulfanyl]propylsulfanyl}acetic acid methyl ester] yielded an IC50 [1] of 40 nM.

`COC(=O)CSCCCS[C@H]1C(=O)C[C@@H](O)[C@@H]1/C=C/C(O)CCc1ccc2ccccc2c1` (stereo partly drawn) [Example 9L, {3-[(1R,2S,3R)-3-Hydroxy-2-((S)-(E)-3-(hydroxy)-5-(naphthyl)pent-1-enyl)-5-oxocyclopentylsulfanyl]propylsulfanyl}acetic acid methyl ester] was tested, and the IC50 [2] was > 10000 nM.

With `COC(=O)CSCCCS[C@H]1C(=O)C[C@@H](O)[C@@H]1/C=C/[C@@H](O)CCc1cc2ccccc2s1` [Example 13H, {3-[(1R,2S,3R)-3-Hydroxy-2-((S)-(E)-3-hydroxy-5-(benzothienyl)pent-1-enyl)-5-oxocyclopentylsulfanyl]propylsulfanyl}acetic acid methyl ester] the IC50 [1] was 91 nM.

`CC(O)(/C=C/[C@H]1[C@H](O)CC(=O)[C@@H]1SCCCSCC(=O)O)CCc1ccc2ccccc2c1` (stereo partly drawn) [Example 28H, {3-[(1R,2S,3R)-3-Hydroxy-2-((S)-(E)-3-(hydroxy)-3-(methyl)-5-(naphthyl)pent-1-enyl)-5-oxocyclopentylsulfanyl]propylsulfanyl}acetic acid] was tested, and the IC50 [1] was 1700 nM and the IC50 [2] was > 10000 nM.

In the case of `CC(O)(/C=C/[C@H]1[C@H](O)CC(=O)[C@@H]1SCCCSCC(=O)O)CCc1ccc2ccccc2c1` (stereo partly drawn) [Example 28L, {3-[(1R,2S,3R)-3-Hydroxy-2-((S)-(E)-3-(hydroxy)-3-(methyl)-5-(naphthyl)pent-1-enyl)-5-oxocyclopentylsulfanyl]propylsulfanyl}acetic acid], the IC50 [1] is reported as 1500 nM and the IC50 [2] is reported as > 10000 nM.

`COC(=O)CSCCCS[C@H]1C(=O)C[C@@H](O)[C@@H]1/C=C/C(C)(O)Cc1ccc2ccccc2c1` (stereo partly drawn) [Example 30H, {3-[(1R,2S,3R)-3-Hydroxy-2-((E)-3-hydroxy-3-methyl-4-naphthalen-2-yl-but-1-enyl)-5-oxocyclopentylsulfanyl]propylsulfanyl}acetic acid methyl ester] was tested, and the IC50 [1] was 3100 nM and the IC50 [2] was > 10000 nM.

With `COC(=O)CSCCCS[C@H]1C(=O)C[C@@H](O)[C@@H]1/C=C/C(C)(O)Cc1ccc2ccccc2c1` (stereo partly drawn) [Example 30L, {3-[(1R,2S,3R)-3-Hydroxy-2-((E)-3-hydroxy-3-methyl-4-naphthalen-2-yl-but-1-enyl)-5-oxocyclopentylsulfanyl]propylsulfanyl}acetic acid methyl ester] the IC50 [1] was 3200 nM.

Work on `CC(O)(/C=C/[C@H]1[C@H](O)CC(=O)[C@@H]1SCCCSCC(=O)O)Cc1ccc2ccccc2c1` (stereo partly drawn) [Example 31H, {3-[(1R,2S,3R)-3-Hydroxy-2-((E)-3-hydroxy-3-methyl-4-naphthalen-2-yl-but-1-enyl)-5-oxocyclopentylsulfanyl]propylsulfanyl}acetic acid] yielded an IC50 [1] of 300 nM and an IC50 [2] of 8100 nM.

Work on `CC(O)(/C=C/[C@H]1[C@H](O)CC(=O)[C@@H]1SCCCSCC(=O)O)Cc1ccc2ccccc2c1` (stereo partly drawn) [Example 31L, {3-[(1R,2S,3R)-3-Hydroxy-2-((E)-3-hydroxy-3-methyl-4-naphthalen-2-yl-but-1-enyl)-5-oxocyclopentylsulfanyl]propylsulfanyl}acetic acid] yielded an IC50 [1] of 900 nM and an IC50 [2] of 9300 nM.

`COC(=O)CSCCCS[C@H]1C(=O)C[C@@H](O)[C@@H]1/C=C/[C@@](C)(O)CCc1cc2ccccc2s1` [Example 33H, {3-[(1R,2S,3R)-3-Hydroxy-2-((S)-(E)-3-(hydroxy)-3-(methyl)-5-(benzothienyl)pent-1-enyl)-5-oxocyclopentylsulfanyl]propylsulfanyl}acetic acid methyl ester] showed an IC50 [1] of 200 nM.

Work on `COC(=O)CSCCCS[C@H]1C(=O)C[C@@H](O)[C@@H]1/C=C/[C@@](C)(O)CCc1cc2ccccc2s1` [Example 33L, {3-[(1R,2S,3R)-3-Hydroxy-2-((S)-(E)-3-(hydroxy)-3-(methyl)-5-(benzothienyl)pent-1-enyl)-5-oxocyclopentylsulfanyl]propylsulfanyl}acetic acid methyl ester] yielded an IC50 [1] of 300 nM.
